Test results: PubChem BioAssay AID330 (DTP/NCI, 2004)
Values joined by “and” are separate entries in the source; they are usually repeats but may differ in a detail not shown here. Equal entries are not always repeated. Toxic doses and inconclusive results are not listed. The calls were made as follows: active = survival T/C of 150% or more; inactive = T/C below 125% in these data.

System: P388 leukemia ip, CD2F1 mice, survival T/C
Assay: NCI In Vivo Anticancer Drug Screen. Data for tumor model P388 Leukemia (intraperitoneal) in CD2F1 (CDF1) mice
Settings: endpoint: median survival time, higher = longer survival
Method in brief: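 Mice carrying the transplanted tumor received test compound or vehicle. Survival was recorded in each group, and the value is the treated-group measurement divided by that of the vehicle-treated control group.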

[1] = dose: 100.0 mg/kg/injection, schedule: Q01DX009 (ip), vehicle: Klucel (hydroxypropylcellulose) (HPC)
[2] = dose: 200.0 mg/kg/injection, schedule: Q01DX009 (ip), vehicle: Klucel (hydroxypropylcellulose) (HPC)
[3] = dose: 50.0 mg/kg/injection, schedule: Q01DX005 (ip), vehicle: saline with Tween-80
[4] = dose: 100.0 mg/kg/injection, schedule: Q01DX005 (ip), vehicle: saline with Tween-80
[5] = dose: 200.0 mg/kg/injection, schedule: Q01DX005 (ip), vehicle: saline with Tween-80
[6] = dose: 50.0 mg/kg/injection, schedule: Q01DX005 (ip), vehicle: Klucel (hydroxypropylcellulose) (HPC)
[7] = dose: 100.0 mg/kg/injection, schedule: Q01DX005 (ip), vehicle: Klucel (hydroxypropylcellulose) (HPC)
[8] = dose: 200.0 mg/kg/injection, schedule: Q01DX005 (ip), vehicle: Klucel (hydroxypropylcellulose) (HPC)
[9] = dose: 1.25 mg/kg/injection, schedule: Q01DX009 (ip), vehicle: Klucel (hydroxypropylcellulose) (HPC)
[10] = dose: 2.5 mg/kg/injection, schedule: Q01DX009 (ip), vehicle: Klucel (hydroxypropylcellulose) (HPC)
[11] = dose: 5.0 mg/kg/injection, schedule: Q01DX009 (ip), vehicle: Klucel (hydroxypropylcellulose) (HPC)
[12] = dose: 10.0 mg/kg/injection, schedule: Q01DX009 (ip), vehicle: Klucel (hydroxypropylcellulose) (HPC)
[13] = dose: 60.0 mg/kg/injection, schedule: Q01DX005 (ip), vehicle: saline with Tween-80
[14] = dose: 120.0 mg/kg/injection, schedule: Q01DX005 (ip), vehicle: saline with Tween-80
[15] = dose: 240.0 mg/kg/injection, schedule: Q01DX005 (ip), vehicle: saline with Tween-80
[16] = dose: 50.0 mg/kg/injection, schedule: Q01DX005 (ip), vehicle: saline
[17] = dose: 100.0 mg/kg/injection, schedule: Q01DX005 (ip), vehicle: saline
[18] = dose: 200.0 mg/kg/injection, schedule: Q01DX005 (ip), vehicle: saline
[19] = dose: 50.0 mg/kg/injection, schedule: Q01DX009 (ip), vehicle: saline with Tween-80
[20] = dose: 100.0 mg/kg/injection, schedule: Q01DX009 (ip), vehicle: saline with Tween-80
[21] = dose: 200.0 mg/kg/injection, schedule: Q01DX009 (ip), vehicle: saline with Tween-80
[22] = dose: 100.0 mg/kg/injection, schedule: Q04DX002 (ip), vehicle: Klucel (hydroxypropylcellulose) (HPC)
[23] = dose: 200.0 mg/kg/injection, schedule: Q04DX002 (ip), vehicle: Klucel (hydroxypropylcellulose) (HPC)

Measured: T/C

O=C1CCC2CCCCC2C1 (stereo not given)
inactive: dose: 50.0 mg/kg/injection, schedule: Q01DX009 (ip), vehicle: Klucel (hydroxypropylcellulose) (HPC) 97 % of control | [1] 104 % of control | [2] 88 % of control

CCOc1cc2c(cc1Cc1ccc3c(c1)OCO3)OCO2
inactive: [3] 97 % of control | [4] 107 % of control | [5] 107 % of control

Nc1cc(Cl)c(O)c(Cl)c1
inactive: dose: 25.0 mg/kg/injection, schedule: Q01DX001 (ip), vehicle: saline with Tween-80 100 % of control | dose: 50.0 mg/kg/injection, schedule: Q01DX001 (ip), vehicle: saline with Tween-80 95 % of control | dose: 100.0 mg/kg/injection, schedule: Q01DX001 (ip), vehicle: saline with Tween-80 90 % of control

C=CC1CCCC[N+]1(C)Cc1ccccc1 (stereo not given)
inactive: dose: 6.25 mg/kg/injection, schedule: Q01DX005 (ip), vehicle: saline 94 % of control | dose: 12.5 mg/kg/injection, schedule: Q01DX005 (ip), vehicle: saline 98 % of control

COc1ccccc1N1C(=S)N(c2cccc(Cl)c2Cl)C(=O)C(N=Nc2ccc(Br)cc2)C1O (stereo not given)
inactive: dose: 100.0 mg/kg/injection, schedule: Q01DX001 (ip), vehicle: Klucel (hydroxypropylcellulose) (HPC) 100 % of control | dose: 200.0 mg/kg/injection, schedule: Q01DX001 (ip), vehicle: Klucel (hydroxypropylcellulose) (HPC) 99 % of control | dose: 400.0 mg/kg/injection, schedule: Q01DX001 (ip), vehicle: Klucel (hydroxypropylcellulose) (HPC) 96 % of control

CCc1nc2c(cnn2C)c(=O)n1-c1ccccc1Cl
inactive: [6] 100 % of control | [7] 100 % of control | [8] 102 % of control

CC(c1ccccc1)[P+](c1ccccc1)(c1ccccc1)c1ccccc1 (stereo not given)
inactive: dose: 0.78 mg/kg/injection, schedule: Q01DX009 (ip), vehicle: saline 112 % of control and 93 % of control | dose: 1.56 mg/kg/injection, schedule: Q01DX009 (ip), vehicle: saline 109 % of control and 118 % of control | dose: 3.13 mg/kg/injection, schedule: Q01DX009 (ip), vehicle: saline 118 % of control and 121 % of control

NC(=S)N/N=C/c1nc2ccccc2c(=O)n1-c1ccc(Cl)cc1
inactive: dose: 100.0 mg/kg/injection, schedule: Q04DX002 (ip), vehicle: saline with Tween-80 104 % of control | dose: 200.0 mg/kg/injection, schedule: Q04DX002 (ip), vehicle: saline with Tween-80 95 % of control | dose: 400.0 mg/kg/injection, schedule: Q04DX002 (ip), vehicle: saline with Tween-80 98 % of control

C=C(CBr)C(=O)OCC
inactive: dose: 7.5 mg/kg/injection, schedule: Q01DX005 (ip), vehicle: saline with Tween-80 103 % of control | dose: 15.0 mg/kg/injection, schedule: Q01DX005 (ip), vehicle: saline with Tween-80 88 % of control | dose: 30.0 mg/kg/injection, schedule: Q01DX005 (ip), vehicle: saline with Tween-80 103 % of control

COc1cc2c(c(OC)c1OC)-c1ccc(OC)c(=O)cc1[C@@H](N(C)C)CC2
inactive: [9] 100 % of control | [10] 107 % of control | [11] 112 % of control and 117 % of control | [12] 118 % of control and 124 % of control

CC(C)c1c(OC(=O)N(C)C)c(C#N)c2[nH]c3ccccc3n2c1=O
inactive: [13] 109 % of control | [14] 94 % of control | [15] 86 % of control

CCN(Cc1cccc(S(=O)(=O)[O-])c1)c1ccc(C(=C2C=CC(=[N+](CC)Cc3cccc(S(=O)(=O)O)c3)C=C2)c2ccccc2S(=O)(=O)O)cc1
inactive: [16] 104 % of control | [17] 96 % of control | [18] 96 % of control

C1CSC(CCC2SCCCS2)SC1
inactive: [19] 92 % of control | [20] 90 % of control | [21] 87 % of control

NC(=O)c1oc([N+](=O)[O-])c(-c2ccccc2)c1-c1ccccc1
inactive: [3] 99 % of control | [4] 102 % of control | [5] 93 % of control

O=S(=O)(OCC(COS(=O)(=O)c1ccccc1)(OS(=O)(=O)c1ccccc1)OS(=O)(=O)c1ccccc1)c1ccccc1
inactive: [1] 105 % of control | [2] 104 % of control | dose: 400.0 mg/kg/injection, schedule: Q01DX009 (ip), vehicle: Klucel (hydroxypropylcellulose) (HPC) 100 % of control

O=C(S)CC(O)(CCl)c1ccc(-c2ccccc2)cc1 (stereo not given)
inactive: [22] 113 % of control | [23] 101 % of control

C=C1C(=O)OC2/C=C(\C)CC/C=C(\C=O)C(OC(=O)C(C)C)C(OC(=O)C(C)(C)O)C12 (stereo not given)
inactive: dose: 5.0 mg/kg/injection, schedule: Q01DX009 (ip), vehicle: other 116 % of control | dose: 10.0 mg/kg/injection, schedule: Q01DX009 (ip), vehicle: other 112 % of control | dose: 20.0 mg/kg/injection, schedule: Q01DX009 (ip), vehicle: other 112 % of control

Cc1ccccc1-n1c(=S)n(-c2ccccn2)c2nc3ccccc3nc1/c2=N/Nc1ccccn1
inactive: [3] 110 % of control | [4] 97 % of control

Cc1ccc(S(=O)(=O)c2cnc(N)nc2N)cc1
inactive: dose: 100.0 mg/kg/injection, schedule: Q01DX001 (ip), vehicle: saline 98 % of control | dose: 200.0 mg/kg/injection, schedule: Q01DX001 (ip), vehicle: saline 95 % of control | dose: 400.0 mg/kg/injection, schedule: Q01DX001 (ip), vehicle: saline 95 % of control

CC12CCC(=O)OC1(CO)C([Se]c1ccccc1)CC2CC(N)=O (stereo not given)
inactive: [3] 93 % of control | [4] 91 % of control | [5] 91 % of control

S=P(Oc1cc(Cl)c(Cl)cc1Cl)(N1CCN(c2cccc(Cl)c2)CC1)N1CCN(c2cccc(Cl)c2)CC1
inactive: [3] 97 % of control | [4] 88 % of control | [5] 86 % of control

CC1=CC=C(C(=O)C(Br)C(Br)c2ccccc2)C1 (stereo not given)
inactive: dose: 6.25 mg/kg/injection, schedule: Q01DX009 (ip), vehicle: Klucel (hydroxypropylcellulose) (HPC) 92 % of control | dose: 12.5 mg/kg/injection, schedule: Q01DX009 (ip), vehicle: Klucel (hydroxypropylcellulose) (HPC) 92 % of control | dose: 25.0 mg/kg/injection, schedule: Q01DX009 (ip), vehicle: Klucel (hydroxypropylcellulose) (HPC) 89 % of control

CC1=CC[C@H]2C(=O)N(CCN(C)C)C(=O)[C@H]2C1
inactive: [16] 100 % of control | [17] 100 % of control | [18] 98 % of control

O=C(O)CNc1ccccc1Br
inactive: [6] 105 % of control | [7] 97 % of control | [8] 96 % of control

Cc1ccc2c(c1)NC(=O)CC(c1ccccc1)=N2
inactive: [13] 97 % of control | [14] 96 % of control | [15] 96 % of control

C/C=C(\C)C(=O)O[C@@H]1c2cc3c(cc2-c2c(cc(OC)c(OC)c2OC)[C@@H]2C(=O)OC[C@@H]12)OCO3
inactive: [9] 92 % of control | [10] 111 % of control | [11] 113 % of control | [12] 103 % of control

CC(=O)Nc1cc(C)cc(C(=O)O)c1C
inactive: [19] 97 % of control | [20] 100 % of control | [21] 98 % of control | dose: 400.0 mg/kg/injection, schedule: Q01DX009 (ip), vehicle: saline with Tween-80 98 % of control

O=C(Nc1cc(Cl)cc(Cl)c1)N1CCOCC1
inactive: [13] 92 % of control | [14] 92 % of control | [15] 92 % of control

CCN(CC)C(=O)C(C)C1=C(C)C(N(CC)CC)=NS(=O)(=O)c2ccccc21 (stereo not given)
inactive: [22] 102 % of control | [23] 90 % of control | dose: 400.0 mg/kg/injection, schedule: Q04DX002 (ip), vehicle: Klucel (hydroxypropylcellulose) (HPC) 109 % of control

CC(=O)Oc1cc2c3c(c1)CCCN3CCC2
inactive: dose: 1.25 mg/kg/injection, schedule: Q04DX003 (ip), vehicle: saline with Tween-80 91 % of control | dose: 2.5 mg/kg/injection, schedule: Q04DX003 (ip), vehicle: saline with Tween-80 104 % of control | dose: 5.0 mg/kg/injection, schedule: Q04DX003 (ip), vehicle: saline with Tween-80 100 % of control
